Patent US20090018194A1, “Use of antimicrobial agents derived from alliaceous plants for the prevention and control of crop diseases, post-harvest rot and as environmental disinifectant products” (DMC Research Center, S.L., priority 2007, published 2009)

Experiments:
[1] = test system: Penicillium italicum Wild strain Supplied by UdL-IRTA; experiment: agar diffusion test, wild phytopathogens isolated from citrus rot; assay type: cell-based; details: incl. 6 mm disc
[2] = test system: Penicillium sp. (CPC-PT-1); experiment: agar diffusion test, wild fungi isolated from crown rot in bananas; assay type: cell-based; details: incl. 6 mm disc
[3] = test system: Penicillium digitatum Supplied by Brogdex SA; experiment: agar diffusion test, wild phytopathogens isolated from citrus rot; assay type: cell-based; details: incl. 6 mm disc
[4] = test system: Penicillium sp. (CPC-PT-2); experiment: agar diffusion test, wild fungi isolated from crown rot in bananas; assay type: cell-based; details: incl. 6 mm disc
[5] = test system: Phytophthora citrophthora; experiment: post-harvest rotting of inoculated oranges (Navelina), immersion treatment; assay type: in vivo
Experimental: (§1) This example considers the effectiveness of the active natural principles PTS and PTSO in two different doses for the control of post-harvest rotting of oranges ([…] variety), caused by controlled artificial inoculation with the fungi Penicillium digitatum, Penicillium expansum, Phytophthora citrophthora and Geotrichum candidum, the principal pathogens of this fruit. The inoculation of the oranges was carried out with suspensions of spores of the different wild fungal strains selected, according to the methodology described below. The first step was the isolation and identification of the fungal strains used in the study. The strains of filamentous fungi used in these tests (Penicillium digitatum, Penicillium italicum and Phytophthora citrophthora) were isolated from oranges affected by rot. In these isolation processes, it was not possible to detect any strain belonging to Geotrichum candidum, as a result of which it was necessary to obtain the latter substance from the Spanish Collection of Standard Cultures, where it is identified by reference CECT 1102. […] To promote the implantation of the inoculum of Geotrichum candidum, 200 ppm of cyclohexamide was added to the inoculum prior to its inoculation. […] The assessment of the effectiveness of PTS and PTSO comprised counting of the number of fruits affected by rot in the inoculated zone, to determine the percentage of fruit affected for each treatment and fungus inoculated, and expressing this effectiveness as a percentage of reduction of the affected fruit.

[6] = test system: Geotrichum candidum; experiment: as above; assay type: in vivo
Experimental: as §1

[7] = test system: Escherichia coli CECT 515; experiment: agar diffusion test with impregnated cellulose discs; assay type: cell-based; details: incl. 6 mm disc
[8] = test system: Total mesophilic AEROBES; experiment: environmental disinfection of banana storage and ripening rooms by fogging, air sampling; details: fogging of 1500 ppm solution; for MICROBE COUNTS Total mesophilic AEROBES CFU/dish: 80 liters collected/dish; for % REDUCTION OF ENVIRONMENTAL MICROBIOTA Population of total mesophilic aerobes: after vs before treatment
Experimental: (§2) A study was conducted to verify the environmental disinfecting capability of the compound PTS in rooms of a fruit and vegetable processing plant, in particular one that handled bananas. For test purposes, three separate rooms of the central were sampled, and the environmental quality was studied before and after the treatment with PTS. First, an environmental sample was taken in each room prior to the treatment, using an […]-Omega air sampling device manufactured by LCB, by suctioning a volume of air set at 80 L which impacted over the different cultivation media selected. The samples were taken in duplicate in the areas to be analyzed. PCA agar medium was used to count the total mesophilic aerobes, and the medium Rose Bengal agar was used to count the fungi. The environmental disinfectant treatment comprised fogging of a 1500 ppm solution of PTS. 5 liters of this solution were fogged for each 1000 m^3 of the room. […] Several hours after the fogging, the sampling operation was repeated in the different rooms that had been treated as described above. […] Once the incubation time had elapsed, the readings were taken by counting the microorganisms that appeared in each type of dish, expressed as cfu/dish.

[9] = test system: FUNGI; experiment: as above; details: fogging of 1500 ppm solution; for MICROBE COUNTS FUNGI CFU/dish: 80 liters collected/dish; for % REDUCTION OF ENVIRONMENTAL MICROBIOTA Fungal population: after vs before treatment
Experimental: as §2

[10] = test system: Penicillium digitatum Wild strain Supplied by UdL-IRTA; experiment: agar diffusion test, wild phytopathogens isolated from citrus rot; assay type: cell-based; details: incl. 6 mm disc
[11] = 1600 ppm, 4 days of treatment at 20° C.
[12] = 1600 ppm, 7 days of treatment at 20° C.
[13] = 2500 ppm, 4 days of treatment at 20° C.
[14] = 2500 ppm, 7 days of treatment at 20° C.
[15] = Zone 1 of the ripening room after treatment
[16] = Zone 2 of the ripening room after treatment

## CCCS[S+]([O-])CCC (stereo not shown) [PTS, Propyl Propyl Thiosulfinate]
[1]; 30 ppm
  diameter of the microbial inhibition halo: 0 mm
[1]; 60 ppm
  diameter of the microbial inhibition halo: 0 mm
[1]; 125 ppm
  diameter of the microbial inhibition halo: 13 mm
[1]; 250 ppm
  diameter of the microbial inhibition halo: 13 mm
[1]; 500 ppm
  diameter of the microbial inhibition halo: 15 mm
[1]; 1000 ppm
  diameter of the microbial inhibition halo: 20 mm
[2]; 30 ppm
  diameter of the microbial inhibition halo: 0 mm
[2]; 60 ppm
  diameter of the microbial inhibition halo: 0 mm
[2]; 125 ppm
  diameter of the microbial inhibition halo: 11 mm
[2]; 250 ppm
  diameter of the microbial inhibition halo: 15 mm
[2]; 500 ppm
  diameter of the microbial inhibition halo: 18 mm
[2]; 1000 ppm
  diameter of the microbial inhibition halo: 20 mm
[3]; 30 ppm
  diameter of the microbial inhibition halo: 12 mm
[3]; 60 ppm
  diameter of the microbial inhibition halo: 15 mm
[3]; 125 ppm
  diameter of the microbial inhibition halo: 20 mm
[3]; 250 ppm
  diameter of the microbial inhibition halo: 33 mm
[3]; 500 ppm
  diameter of the microbial inhibition halo: 33 mm
[3]; 1000 ppm
  diameter of the microbial inhibition halo: 35 mm
[4]; 30 ppm
  diameter of the microbial inhibition halo: 0 mm
[4]; 60 ppm
  diameter of the microbial inhibition halo: 0 mm
[4]; 125 ppm
  diameter of the microbial inhibition halo: 0 mm
[4]; 250 ppm
  diameter of the microbial inhibition halo: 15 mm
[4]; 500 ppm
  diameter of the microbial inhibition halo: 25 mm
[4]; 1000 ppm
  diameter of the microbial inhibition halo: 25 mm
[5]; [11]
  % Reduction: 60%
  % of fruit affected: 18%
[5]; [12]
  % Reduction: 7%
  % of fruit affected: 93%
[5]; [13]
  % Reduction: 70%
  % of fruit affected: 8%
[5]; [14]
  % Reduction: 20%
  % of fruit affected: 80%
[6]; 1600 ppm, 7 days at 20° C.
  % Reduction: 95%
  % of fruit affected: 5%
[6]; 1600 ppm, 14 days at 20° C.
  % Reduction: 37%
  % of fruit affected: 63%
[6]; 2500 ppm, 7 days at 20° C.
  % Reduction: 100%
  % of fruit affected: 0%
[6]; 2500 ppm, 14 days at 20° C.
  % Reduction: 37%
  % of fruit affected: 63%
[7]; 25 ppm
  diameter of the microbial inhibition halo: 14 mm
[7]; 50 ppm
  diameter of the microbial inhibition halo: 17 mm
[7]; 100 ppm
  diameter of the microbial inhibition halo: 21 mm
[8]; Entry room after treatment
  MICROBE COUNTS Total mesophilic AEROBES CFU/m^3: 314 CFU/m^3
  MICROBE COUNTS Total mesophilic AEROBES CFU/dish: 24 CFU/dish
[8]; Entry room
  % REDUCTION OF ENVIRONMENTAL MICROBIOTA Population of total mesophilic aerobes: 65%
[8]; [15]
  MICROBE COUNTS Total mesophilic AEROBES CFU/m^3: 287 CFU/m^3
  MICROBE COUNTS Total mesophilic AEROBES CFU/dish: 22 CFU/dish
[8]; Zone 1 of the ripening room
  % REDUCTION OF ENVIRONMENTAL MICROBIOTA Population of total mesophilic aerobes: 69%
[8]; [16]
  MICROBE COUNTS Total mesophilic AEROBES CFU/m^3: 1487 CFU/m^3
  MICROBE COUNTS Total mesophilic AEROBES CFU/dish: 96 CFU/dish
[8]; Zone 2 of the ripening room
  % REDUCTION OF ENVIRONMENTAL MICROBIOTA Population of total mesophilic aerobes: 58%
[9]; Entry room after treatment
  MICROBE COUNTS FUNGI CFU/m^3: 707 CFU/m^3
  MICROBE COUNTS FUNGI CFU/dish: 51 CFU/dish
[9]; Entry room
  % REDUCTION OF ENVIRONMENTAL MICROBIOTA Fungal population: 70%
[9]; [15]
  MICROBE COUNTS FUNGI CFU/m^3: 273 CFU/m^3
  MICROBE COUNTS FUNGI CFU/dish: 21 CFU/dish
[9]; Zone 1 of the ripening room
  % REDUCTION OF ENVIRONMENTAL MICROBIOTA Fungal population: 23%
[9]; [16]
  MICROBE COUNTS FUNGI CFU/m^3: 328 CFU/m^3
  MICROBE COUNTS FUNGI CFU/dish: 25 CFU/dish
[9]; Zone 2 of the ripening room
  % REDUCTION OF ENVIRONMENTAL MICROBIOTA Fungal population: 36%
[10]; 30 ppm
  diameter of the microbial inhibition halo: 12 mm
[10]; 60 ppm
  diameter of the microbial inhibition halo: 15 mm
[10]; 125 ppm
  diameter of the microbial inhibition halo: 20 mm
[10]; 250 ppm
  diameter of the microbial inhibition halo: 33 mm
[10]; 500 ppm
  diameter of the microbial inhibition halo: 40 mm
[10]; 1000 ppm
  diameter of the microbial inhibition halo: 41 mm
